The source of these data is patent US20230065740A1, “CYCLIN-DEPENDENT KINASE INHIBITORS” (SPV THERAPEUTICS INC., priority 2018, published 2023).

What is called IC50 is the concentration that gives 50% inhibition.

Read-outs that look alike come from different tables or passages of the source. Some results are limits rather than exact numbers.

The target in one test is T1, CDK6-CYCLIND3 (Homo sapiens, UniProt Q00534).
T1 construct: purchased Carna
Nature of the test: Microfluidic LabChip kinase inhibition assay, CDK6-CyclinD3. It is filed as biochemical. Conditions: 300 μM ATP.

In the next test the target is CDK4-CYCLIND1 (Homo sapiens, UniProt P11802). Nature of the test: Microfluidic LabChip kinase inhibition assay, CDK4-CyclinD1. To be noted: 200 μM ATP.
Chain of CDK4-CYCLIND1 (P11802 whole entry): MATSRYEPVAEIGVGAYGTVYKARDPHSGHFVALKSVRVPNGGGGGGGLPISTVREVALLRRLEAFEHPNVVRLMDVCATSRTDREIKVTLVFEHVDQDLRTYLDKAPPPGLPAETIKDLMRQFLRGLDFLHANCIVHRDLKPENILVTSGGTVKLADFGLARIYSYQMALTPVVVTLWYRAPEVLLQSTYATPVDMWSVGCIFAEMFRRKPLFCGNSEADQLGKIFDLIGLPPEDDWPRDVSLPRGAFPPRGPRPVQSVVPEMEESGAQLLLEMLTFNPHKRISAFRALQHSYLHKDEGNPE
Chain of CDK4-CYCLIND1 (P24385 whole entry partner): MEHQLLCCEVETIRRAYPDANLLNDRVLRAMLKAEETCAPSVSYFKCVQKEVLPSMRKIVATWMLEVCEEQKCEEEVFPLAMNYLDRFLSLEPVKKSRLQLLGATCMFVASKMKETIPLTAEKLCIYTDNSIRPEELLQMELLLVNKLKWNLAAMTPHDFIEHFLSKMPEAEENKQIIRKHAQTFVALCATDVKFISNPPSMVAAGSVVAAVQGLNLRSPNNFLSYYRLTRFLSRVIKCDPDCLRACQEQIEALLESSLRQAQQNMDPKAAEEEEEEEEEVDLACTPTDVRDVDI
Setting [1] is: Table 3a, read-out: CDK6 CyclinD3 IC50.
Setting [2] is: Table 3b, read-out: CDK6 CyclinD3 IC50.
The mark [3] stands for this setting: CDK4 CyclinD1 IC50 (μM), Table 3a, second value in parentheses on the next line.
Setting [4] is: CDK4 CyclinD1 IC50 (μM), Table 3b, second value in parentheses on the next line.
Where [5] appears, read: Table 2, 2 nM enzyme, read-out: CDK6 IC50.
Setting [6] is: CDK4 IC50 (μM), Table 2, 1 nM enzyme.

T1 sequence (Q00534 whole entry): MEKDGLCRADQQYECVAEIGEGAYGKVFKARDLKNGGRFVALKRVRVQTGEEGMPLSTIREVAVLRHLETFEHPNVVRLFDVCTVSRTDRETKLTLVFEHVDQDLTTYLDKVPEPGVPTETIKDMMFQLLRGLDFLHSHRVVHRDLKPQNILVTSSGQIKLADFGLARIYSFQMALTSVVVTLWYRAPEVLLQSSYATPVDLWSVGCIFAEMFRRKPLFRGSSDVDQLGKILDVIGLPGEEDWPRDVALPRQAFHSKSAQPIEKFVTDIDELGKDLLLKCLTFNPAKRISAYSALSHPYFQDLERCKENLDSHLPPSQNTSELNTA
T1 sequence (P30281 whole entry partner): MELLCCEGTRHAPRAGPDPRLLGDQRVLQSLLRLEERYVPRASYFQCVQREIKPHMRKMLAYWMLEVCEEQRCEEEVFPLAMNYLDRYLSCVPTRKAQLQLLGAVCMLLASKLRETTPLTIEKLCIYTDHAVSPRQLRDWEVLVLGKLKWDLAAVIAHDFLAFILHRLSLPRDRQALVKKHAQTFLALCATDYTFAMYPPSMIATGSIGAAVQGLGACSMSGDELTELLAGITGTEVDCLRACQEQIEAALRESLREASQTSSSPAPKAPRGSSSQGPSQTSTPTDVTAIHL
Description for CDK4-CYCLIND1: Inhibition assays were performed using microfluidic LabChip 300 Drug Discovery System from Caliper Life Sciences. […] The assay has a total volume of 10 μL consisting of 5 μL of enzyme and buffer and 5 μL of substrate and buffer. The test compounds were diluted in 100% dimethylsulfoxide (DMSO) using 3-fold dilution steps. […] Compounds were tested in a single well for each dilution and the final concentration of DMSO was maintained at 1%.
The assay buffer contained 100 mM HEPES, pH 7.5, 0.01% Triton X-100, 0.1% bovine serum albumin (BSA), 5 mM MgCl2; 1 mM dithiothreitol (DTT), 10 μM sodium orthovanadate, and 10 μM β-glycerophosphate.
The assay was conducted by adding 5 μL of enzyme, adenosine triphosphate (ATP) and buffer to an assay plate. A 100 nL aliquot of the diluted compounds were added to the plate. The assay was initiated by the addition of 5 μL of phosphoenolpyruvate substrate (PEP) in buffer. […] The reaction was terminated by the addition of EDTA. The plates were analyzed using a Caliper LabChip 3000.

Take `O=C1NCCC12Cc1cnc(Nc3ccc(N4CCNCC4)c(F)c3)nc1N2C1CCCC1` (single isomer, unassigned) [Compound C203, 7′-cyclopentyl-2′-((3-fluoro-4-(piperazin-1-yl)phenyl)amino)-5′,7′-dihydrospiro[pyrrolidine-3,6′-pyrrolo[2,3-d]pyrimidin]-2-one]: the IC50 came to 0.104 µM at CDK6-CYCLIND3 (setting [1]), 0.104 µM on CDK6-CYCLIND3 (setting [2]), 0.0245 µM at CDK4-CYCLIND1 (setting [3]) and 0.0245 µM on CDK4-CYCLIND1 (setting [4]).

For `O=C1NCCC12Cc1cnc(Nc3ccc(N4CCNCC4)c(F)c3)nc1N2C1CCCC1` (single isomer, unassigned) [Compound C204, 7′-cyclopentyl-2′-((3-fluoro-4-(piperazin-1-yl)phenyl)amino)-5′,7′-dihydrospiro[pyrrolidine-3,6′-pyrrolo[2,3-d]pyrimidin]-2-one], the half-maximal inhibitory concentration (IC50) at CDK6-CYCLIND3 (setting [1]) stood at 11.8 µM; at CDK6-CYCLIND3 (setting [2]), 11.8 µM; at CDK4-CYCLIND1 (setting [3]), 2.03 µM; on CDK4-CYCLIND1 (setting [4]), 2.03 µM.

`CN1CCN(c2ccc(Nc3ncc4c(n3)N(C3CCCC3)C3(CCNC3=O)C4)cc2F)CC1` (single isomer, unassigned) [Compound C205, 7′-cyclopentyl-2′-((3-fluoro-4-(4-methylpiperazin-1-yl)phenyl)amino)-5′,7′-dihydrospiro[pyrrolidine-3,6′-pyrrolo[2,3-d]pyrimidin]-2-one]: the half-inhibitory concentration (IC50) on CDK6-CYCLIND3 (setting [1]) came to 0.179 µM; at CDK6-CYCLIND3 (setting [2]), 0.179 µM; on CDK4-CYCLIND1 (setting [3]), 0.0413 µM; at CDK4-CYCLIND1 (setting [4]), 0.0413 µM.

On to `CN1CCN(c2ccc(Nc3ncc4c(n3)N(C3CCCC3)C3(CCNC3=O)C4)cc2F)CC1` (single isomer, unassigned) [Compound C206, 7′-cyclopentyl-2′-((3-fluoro-4-(4-methylpiperazin-1-yl)phenyl)amino)-5′,7′-dihydrospiro[pyrrolidine-3,6′-pyrrolo[2,3-d]pyrimidin]-2-one], for which the concentration for half-maximal inhibition (IC50) on CDK6-CYCLIND3 (setting [1]) amounted to 15.8 µM; at CDK6-CYCLIND3 (setting [2]), 15.8 µM; at CDK4-CYCLIND1 (setting [3]), 5.14 µM; on CDK4-CYCLIND1 (setting [4]), 5.14 µM.

As for `CN1CCN(c2ccc(Nc3ncc4c(n3)N(C3CCCC3)C3(CCN(C)C3=O)C4)cc2)CC1` (stereo not drawn) [Compound C1, 7′-cyclopentyl-1-methyl-2′-((4-(4-methylpiperazin-1-yl)phenyl)amino)-5′,7′-dihydrospiro[pyrrolidine-3,6′-pyrrolo[2,3-d]pyrimidin]-2-one], the half-maximal inhibitory concentration (IC50) on CDK6-CYCLIND3 (setting [5]) worked out at 19.1 µM; against CDK4-CYCLIND1 (setting [6]), 4.74 µM.

In the case of `CN1CCC2(Cc3cnc(Nc4ccc(N5CCNCC5)cc4)nc3N2C2CCCC2)C1=O` (stereo not drawn) [Compound C2, 7′-cyclopentyl-1-methyl-2′-((4-(piperazin-1-yl)phenyl)amino)-5′,7′-dihydrospiro[pyrrolidine-3,6′-pyrrolo[2,3-d]pyrimidin]-2-one], the figures for the IC50 at CDK6-CYCLIND3 (setting [5]) and against CDK4-CYCLIND1 (setting [6]) were 23.8 µM and 5.16 µM, respectively.

For the compound `CC(C)N1CCN(c2ccc(Nc3ncc4c(n3)N(C3CCCC3)C3(CCN(C)C3=O)C4)nc2)CC1` (stereo not drawn) [Compound C3, 7′-cyclopentyl-2′-((5-(4-isopropylpiperazin-1-yl)pyridin-2-yl)amino)-1-methyl-5′,7′-dihydrospiro[pyrrolidine-3,6′-pyrrolo[2,3-d]pyrimidin]-2-one], the IC50 on CDK6-CYCLIND3 (setting [5]) and at CDK4-CYCLIND1 (setting [6]) was greater than 30 µM throughout.

As to `CN(C)CCOc1ccc(Nc2ncc3c(n2)N(C2CCCC2)C2(CCN(C)C2=O)C3)nc1` (stereo not drawn) [Compound C4, 7′-cyclopentyl-2′-((5-(2-(dimethylamino)ethoxy)pyridin-2-yl)amino)-1-methyl-5′,7′-dihydrospiro[pyrrolidine-3,6′-pyrrolo[2,3-d]pyrimidin]-2-one], the half-inhibitory concentration (IC50) at CDK6-CYCLIND3 (setting [5]) and on CDK4-CYCLIND1 (setting [6]) was greater than 30 µM each time.

Consider `CN1CCC2(Cc3cnc(Nc4ccc(OCCN5CCCC5)cn4)nc3N2C2CCCC2)C1=O` (stereo not drawn) [Compound C5, 7′-cyclopentyl-1-methyl-2′-((5-(2-(pyrrolidin-1-yl)ethoxy)pyridin-2-yl)amino)-5′,7′-dihydrospiro[pyrrolidine-3,6′-pyrrolo[2,3-d]pyrimidin]-2-one], for which the half-inhibitory concentration (IC50) at CDK6-CYCLIND3 (setting [5]) and against CDK4-CYCLIND1 (setting [6]) was greater than 30 µM each time.

For the compound `CN1CCC2(Cc3cnc(Nc4ccc(OCCN5CCCCC5)cn4)nc3N2C2CCCC2)C1=O` (stereo not drawn) [Compound C6, 7′-cyclopentyl 1-methyl-2′-((5-(2-(piperidin-1-yl)ethoxy)pyridin-2-yl)amino)-5′,7′-dihydrospiro[pyrrolidine-3,6′-pyrrolo[2,3-d]pyrimidin]-2-one], the half-inhibitory concentration (IC50) at CDK6-CYCLIND3 (setting [5]) and against CDK4-CYCLIND1 (setting [6]) was greater than 30 µM each time.

For `CN1CCN(c2ccc(Nc3ncc4c(n3)N(C3CCCC3)C3(CCCN(C)C3=O)C4)cc2)CC1` (stereo not drawn) [Compound C7, 7′-cyclopentyl-1-methyl-2′-((4-(4-methylpiperazin-1-yl)phenyl)amino)-5′,7′-dihydrospiro[piperidine-3,6′-pyrrolo[2,3-d]pyrimidin]-2-one], the IC50 on CDK6-CYCLIND3 (setting [5]) and against CDK4-CYCLIND1 (setting [6]) was greater than 30 µM each time.

For the compound `CN1CCCC2(Cc3cnc(Nc4ccc(N5CCNCC5)cc4)nc3N2C2CCCC2)C1=O` (stereo not drawn) [Compound C8, 7′-cyclopentyl-1-methyl-2′-((4-(piperazin-1-yl)phenyl)amino)-5′,7′-dihydrospiro[piperidine-3,6′-pyrrolo[2,3-d]pyrimidin]-2-one], the half-maximal inhibitory concentration (IC50) on CDK6-CYCLIND3 (setting [5]) and on CDK4-CYCLIND1 (setting [6]) was greater than 30 µM throughout.

For `CC(C)N1CCN(c2ccc(Nc3ncc4c(n3)N(C3CCCC3)C3(CCCN(C)C3=O)C4)nc2)CC1` (stereo not drawn) [Compound C9, 7′-cyclopentyl-2′-((5-(4-isopropylpiperazin-1-yl)pyridin-2-yl)amino)-1-methyl-5′,7′-dihydrospiro[piperidine-3,6′-pyrrolo[2,3-d]pyrimidin]-2-one], the IC50 at CDK6-CYCLIND3 (setting [5]) and at CDK4-CYCLIND1 (setting [6]) was greater than 30 µM each time.

As for `CN1CCCC2(Cc3cnc(Nc4ccc(OCCN5CCCC5)cn4)nc3N2C2CCCC2)C1=O` (stereo not drawn) [Compound C10, 7′-cyclopentyl-1-methyl-2′-((5-(2-(pyrrolidin-1-yl)ethoxy)pyridin-2-yl)amino)-5′,7′-dihydrospiro[piperidine-3,6′-pyrrolo[2,3-d]pyrimidin]-2-one], the IC50 at CDK6-CYCLIND3 (setting [5]) and against CDK4-CYCLIND1 (setting [6]) was greater than 30 µM in each case.

For `CN1CCCC2(Cc3cnc(Nc4ccc(OCCN5CCCCC5)cn4)nc3N2C2CCCC2)C1=O` (stereo not drawn) [Compound C11, 7′-cyclopentyl-1-methyl-2′-((5-(2-(piperidin-1-yl)ethoxy)pyridin-2-yl)amino)-5′,7′-dihydrospiro[piperidine-3,6′-pyrrolo[2,3-d]pyrimidin]-2-one], the half-maximal inhibitory concentration (IC50) on CDK6-CYCLIND3 (setting [5]) and against CDK4-CYCLIND1 (setting [6]) was greater than 30 µM each time.

Consider `COc1ccc(CN2CCC3(Cc4cnc(Nc5ccc(N6CCN(C)CC6)cc5)nc4N3C3CCCC3)C2=O)cc1` (stereo not drawn) [Compound C12, 7′-cyclopentyl-1-(4-methoxybenzyl)-2′-((4-(4-methylpiperazin-1-yl)phenyl)amino)-5′,7′-dihydrospiro[pyrrolidine-3,6′-pyrrolo[2,3-d]pyrimidin]-2-one], for which the IC50 on CDK6-CYCLIND3 (setting [5]) was greater than 30 µM; on CDK4-CYCLIND1 (setting [6]), 1.96 µM.

As to `CN1CCN(c2cnc(Nc3ncc4c(n3)N(C3CCCC3)C3(CCN(C)C3=O)C4)cc2C(F)(F)F)CC1` (stereo not drawn) [Compound C13, 7′-cyclopentyl-1-methyl-2′-((5-(4-methylpiperazin-1-yl)-4-(trifluoromethyl)pyridin-2-yl)amino)-5′,7′-dihydrospiro[pyrrolidine-3,6′-pyrrolo[2,3-d]pyrimidin]-2-one], the IC50 on CDK6-CYCLIND3 (setting [5]) and on CDK4-CYCLIND1 (setting [6]) was greater than 30 µM in each case.

For the compound `CN1CCCC2(Cc3cnc(Nc4cc(C(F)(F)F)c(N5CCNCC5)cn4)nc3N2C2CCCC2)C1=O` (stereo not drawn) [Compound C14, 7′-cyclopentyl-1-methyl-2′-((5-(piperazin-1-yl)-4-(trifluoromethyl)pyridin-2-yl)amino)-5′,7′-dihydrospiro[piperidine-3,6′-pyrrolo[2,3-d]pyrimidin]-2-one], the half-maximal inhibitory concentration (IC50) at CDK6-CYCLIND3 (setting [5]) and on CDK4-CYCLIND1 (setting [6]) was greater than 30 µM throughout.

For `CN1CCC2(Cc3cnc(Nc4cc(C(F)(F)F)c(N5CCNCC5)cn4)nc3N2C2CCCC2)C1=O` (stereo not drawn) [Compound C15, 7′-cyclopentyl-1-methyl-2′-((5-(piperazin-1-yl)-4-(trifluoromethyl)pyridin-2-yl)amino)-5′,7′-dihydrospiro[pyrrolidine-3,6′-pyrrolo[2,3-d]pyrimidin]-2-one], the IC50 on CDK6-CYCLIND3 (setting [5]) and against CDK4-CYCLIND1 (setting [6]) was greater than 30 µM in each case.

Turning to `COc1ccc(CN2CCC3(Cc4cnc(Nc5cc(C(F)(F)F)c(N6CCNCC6)cn5)nc4N3C3CCCC3)C2=O)cc1` (stereo not drawn) [Compound C16, 7′-cyclopentyl-1-(4-methoxybenzyl)-2′-((5-(piperazin-1-yl)-4-(trifluoromethyl)pyridin-2-yl)amino)-5′,7′-dihydrospiro[pyrrolidine-3,6′-pyrrolo[2,3-d]pyrimidin]-2-one], the IC50 is greater than 30 µM on CDK6-CYCLIND3 (setting [5]) and 13.1 µM against CDK4-CYCLIND1 (setting [6]).

For the compound `CN1CCN(c2ccc(Nc3ncc4c(n3)N(C3CCCC3)CC43CCNC3=O)nc2)CC1` (stereo not drawn) [Compound C98, 7′-cyclopentyl-2′-((5-(4-methylpiperazin-1-yl)pyridin-2-yl)amino)-6′,7′-dihydrospiro[pyrrolidine-3,5′-pyrrolo[2,3-d]pyrimidin]-2-one], the half-maximal inhibitory concentration (IC50) on CDK4-CYCLIND1 (setting [6]) was 57.6 µM.

For the compound `O=C1NCCC12C(=O)N(C1CCCC1)c1nc(Nc3ccc(N4CCNCC4)cn3)ncc12` (stereo not drawn) [Compound C99, 7′-cyclopentyl-2′-((5-(piperazin-1-yl)pyridin-2-yl)amino)spiro[pyrrolidine-3,5′-pyrrolo[2,3-d]pyrimidine]-2,6′(7′H)-dione], inhibition on CDK4-CYCLIND1 (setting [6]) was half-maximal at 59.4 µM (IC50).

With `CC(C)N1CCN(c2ccc(Nc3ncc4c(n3)N(C3CCCC3)C(=O)C43CCNC3=O)cc2F)CC1` (stereo not drawn) [Compound C104, 7′-cyclopentyl-2′-((3-fluoro-4-(4-isopropylpiperazin-1-yl)phenyl)amino)spiro[pyrrolidine-3,5′-pyrrolo[2,3-d]pyrimidine]-2,6′(7′H)-dione], half-maximal inhibition on CDK4-CYCLIND1 (setting [6]) (IC50) was put at 51 µM.
